Results on two compounds are retold here after US9198903B2, “Method of treating or preventing thrombosis in a patient with 5-HT2A receptor antagonist thromboserin” (Thromboserin Limited, priority 2007, dated 2015).

For series [1] the following is noted: in the presence of hypokalaemia; cited from earlier work.
Another series concerns alpha-1 adrenergic. The note with it: cited from earlier work.
Series [2] can be described thus: Skin bleeding time in randomised double blind cross-over study. It counts as in vivo, human patients. The note with it: first 13 patients, drug 10 mg twice daily vs placebo cross-over courses. The source says: Objective: To evaluate whether inhibition platelets can be accompanied by no increase in bleeding time, by means of serotonin 5HT2A receptor antagonism. Study population: Patients with a history of intermittent claudication (IC) or coronary heart disease (CHD) recruited. There were 48 patients studied, all of whom were Caucasian, aged 69±6.6 years and of which 38 were male and 10 female. Patients with IC have clinical findings of peripheral vascular disease and an ABPI <0.9. Patients with CHD have chronic stable angina and angiographic evidence of coronary artery disease (stenosis of >70% in at least one major coronary artery). Study design: Randomised controlled double blind cross-over study: 2 weeks 5HT2A receptor antagonist (Thromboserin) (10 mg twice daily) or placebo, wash out period of 2 weeks and cross over to other arm for further two weeks. Side effects, and compliance documented in both groups. Skin bleeding time was performed, contra-laterally from venepuncture. A suitable area of forearm was shaved if necessary and cleaned with alcohol swab. A sphygmomanometer cuff was inflated on the upper arm to 40 mmHg. One incision was made with Surgicutt bleeding device ([…], Hertfordshire), and a stopwatch was started. […] The bleeding time was recorded to the nearest 30 seconds.

Another series deals with platelets. As to the kind of experiment: Platelet count (full blood count) in cross-over study. It counts as in vivo, human patients. The method, then:
(§1) Study design: Randomised controlled double blind cross-over study: 2 weeks 5HT2A receptor antagonist (Thromboserin) (10 mg twice daily) or placebo, wash out period of 2 weeks and cross over to other arm for further two weeks. Side effects, and compliance documented in both groups. Blood sampling/Assays: Blood samples obtained at baseline, 2 weeks (the end of phase 1), 4 weeks (the end of phase 2), at 6 weeks (the end of phase 3) and 2 weeks after the completion of the study. The following assays were obtained. • Full blood count, urea, electrolytes, creatinine, liver function tests and glucose • Blood levels of Thromboserin • Bleeding time • Surface expression of the platelet activation markers P-selectin and fibrinogen. These were measured using whole blood flow cytometry. Measurement after incubation with agonists such as ADP was also performed in order to assess the platelet responsiveness to stimuli. • Ultegra Rapid Platelet Function Assay (RPFA). Methods: Venepuncture: Venous blood was collected into vacutainers by clean venepuncture with 19G butterfly and adaptor, using tourniquet to locate the vein only. The first 5 mL of blood was used for full blood count, and subsequent samples collected in order for the platelet tests and others. Clinical symptoms and signs were also recorded. The other observations were: routine full blood count by Clinical Haematology Laboratory, ARI, and U&Es, creatinine, Liver Function tests and blood glucose by Clinical Biochemistry Laboratory, ARI.

Series [3] can be described thus: Clinical biochemistry (liver function tests, glucose, urea, creatinine, electrolytes) in cross-over study. It counts as in vivo, human patients. The note with it: Thromboserin vs placebo. The method, then: as §1, with “Venepuncture:” for “Venepuncture: Venous blood was collected into vacutainers by clean venepuncture with 19G butterfly and adaptor, using tourniquet to locate the vein only. The first 5 mL of blood was used for full blood count, and subsequent samples collected in order for the platelet tests and others.”

Structures are written as SMILES.

As for `O=C(c1ccc(F)cc1)C1CCN(CCn2c(=O)[nH]c3ccccc3c2=O)CC1` [Ketanserin], the “Pro-arrhythmic properties (in words)” value in series [1] was “pro-arrhythmic properties”. The “Alpha-1 adrenergic activity (in words)” value in the series on alpha-1 adrenergic is “alpha-1 adrenergic antagonistic properties”.

On to `CN(C)C(C)(C)CSc1nc2ccccc2cc1-c1ccccc1.Cl` [Thromboserin], for which, in series [2], the “Change of bleeding time (in words)” value was “no significant rise in bleeding time”. The “Probability of no Difference: Platelet count” value in the series on platelets (Thromboserin 10 mg twice daily 2 weeks vs placebo, Wilcoxon) is recorded as 0.0416. In the series on platelets (Thromboserin vs placebo, Repeated measures ANOVA), the “Probability of no Difference: Platelet count over 6 weeks” value is 0.0233. The “Probability of no Difference: Platelets, excluding 4 patients With abnormal count” value in the series on platelets (Thromboserin vs placebo, Wilcoxon) stood at 0.0214. Also, in series [3] (Wilcoxon), the “Probability of no Difference: Alanine amino transferase” value was determined as 0.0021; the “Probability of no Difference: Gamma GT” value was 0.0216; the “Probability of no Difference: Gamma GT, In patients with abnormal values” turned out to be 0.0266. The “Probability of no Difference: Alkaline phosphatase” value in series [3] (paired t test) turned out to be 0.0034.
